# Patent US9944991B2, “Compositions and methods for diagnosis, prognosis and treatment of hematological malignancies” (Dana-Farber Cancer Institute, Inc., priority 2012, dated 2018)
# Experiments:
# [1] = test system: BCWM.1 cells; test: Cell cycle analysis, PI staining and flow cytometry; type: cell-based, human; conditions: for cells in S phase: 12 hours (control 36.29%); for G1 phase BCWM.1 cells: 12 hours (control 52.52%)
# [2] = test system: WM and IgM low grade lymphoma cell lines (BCWM.1, MWCL.1 and RL); test: Adhesion to primary WM bone marrow stromal cells; type: cell-based, human; conditions: 0.01-1 nM
# Protocol: (§1) The bone marrow (BM) microenvironment confers growth and induces drug resistance in malignant cells (Mitsiades C. S. et al., Eur. J. Cancer., 42(11):1564-73 (2006)). It was therefore sought to determine the anti-tumor activity of everolimus in the presence of the BM microenvironment. It was first investigated whether everolimus inhibits WM cell growth in the context of the BM milieu. BCWM.1 cells were exposed to everolimus (0.1-10 nM) in the presence or absence of BMSCs for 48 hours. The viability of BMSCs assessed by MTT was not affected by everolimus treatment (data not shown). […] Next, the efficacy of everolimus in affecting migration and adhesion of WM cells was evaluated. […] To study the effect of everolimus on the migration of WM cells, BCWM.1 cells were incubated with everolimus (0.01-1 nM) for 4 hours. […] Cells were then subjected to migration as previously reported (Roccaro A. M. et al., Blood, 113(26):6669-80 (2009)).
# [3] = test system: BCWM.1 cells; test: Western blot of p-4EBP1 and p-70S6K in BCWM.1 cells cultured with HUVECs; conditions: 0.01-10 nM, 6 hours
# Protocol: (§2) WM and IgM secreting cell lines were harvested and lysed using lysis buffer (Cell Signaling Technology, Beverly, Mass.) reconstituted with 5 mM NaF, 2 mM Na3VO4, 1 mM PMSF (polymethilsulfonyl fluoride), 5 μg/mL leupeptine, and 5 μg/mL aprotinin. Whole-cell lysates (50 μg/lane) were subjected to sodium dodecyl sulfate-polyacrylamide gel eletrophoresis (SDS-PAGE) and transferred to polyvinyldene fluoride (PVDF) membrane (Bio-Rad Laboratories, Hercules, Calif.). The antibodies used for immunoblotting included: anti-caspase3-, -caspase-9, -PARP, phospho (p)-mTOR, p-p70S6K, p-4EBP1, p-FAK-cyclinD1, -cyclinD2-p27^Kip1, -p21^Cip1, p-Akt, -Akt, pERK, -ERK, p-GSK3, -p-STAT3, -p-p65, -p-p50, -p-IkB, -nucleolin and -tubulin antibodies (Cell Signaling, Danvers, Mass.).
# It was next sought to determine the effect of everolimus on modulating vessel formation. […] The impact of everolimus to target WM cells in presence of endothelial cells was next evaluated at signaling level.
# [4] = test system: WM and IgM low-grade lymphoma cells (BCWM.1; MWCL.1; RL); test: DNA fragmentation (Cell Death Detection ELISA), apoptosis; type: cell-based, human; conditions: 0.1-10 nM, 24 hours
# Source text: Cell Death Detection ELISA (Roche Applied Science, Indianapolis, Ind.) was used to quantify DNA fragmentation, as per the manufacturer's instructions, and as previously described (Sacco A. et al., Clin Cancer Res., 17(7):1753-64 (2011)).
# [5] = test system: WM-WSU, RL, MWCL.1 cells; test: MTT cytotoxicity on IgM low-grade lymphoma cells; type: cell-based, human; conditions: 0.01-40 nM, 48 hours
# [6] = test system: HUVECs; test: Morphogenesis assay on Matrigel (capillary tubule formation); type: cell-based, human
# Protocol: Unpolymerized Matrigel (17 mg/mL; Becton Dickinson, Mountain View, Calif.) was placed (50 μL/well) in a 96-well microtiter plate (0.32 cm2/well) and polymerized for 1 hour at 37° C. HUVECs and MMECs (5×10^3 per well) in 200 μL of DMEM/10% FCS (positive control), serum-free medium (negative control), as well as in the presence or absence of everolimus (0-0.01-0.1-1-10 nM) were layered onto the Matrigel surface. After 6 hours of incubation in a 5% CO2 humidified atmosphere at 37° C., cell growth and tridimensional organization were observed using a reverted phase-contrast light microscope, as described (Roccaro A. M. et al., Cancer Res., 66(1):184-91 (2006)).
# [7] = test system: BCWM.1 cells; test: [3H]-thymidine uptake of BCWM.1 cells in presence of endothelial cells (HUVECs); type: cell-based, human; conditions: 0.01-10 nM, 48 hours
# [8] = test system: BCWM.1 and MWCL.1 cells; test: Caspase-9, caspase-3 and PARP cleavage (Western blot, Caspase 3/7 Glo Assay); type: cell-based, human; conditions: 0.1-10 nM, 24 hours
# Protocol: WM cell lines have been exposed to everolimus (0.1-10 nM) for 24 hours and caspase activation has been assessed using Caspase 3/7 Glo Assay (Promega, Madison, Wis.), according to manufacturer's procedure.
# [9] = test system: BMSCs; test: MTT viability of BMSCs; type: cell-based, human; conditions: 0.1-10 nM, 48 hours
# Protocol: as §1
# [10] = test system: BCWM.1 cells; test: Immunoblotting of cyclin D1, cyclin D2, p27Kip1, p21Cip1; type: cell-based, human; conditions: 0.1-10 nM, 12 hours
# Protocol: as §2
# [11] = test system: mTOR; test: Western blot of p-mTOR, p-p70S6K, p-4EBP1 in BCWM.1 and MWCL.1 cells; type: cell-based, human; conditions: 0.1-10 nM, 6 hours
# Protocol: as §2
# [12] = patients with relapsed or refractory WM, oral; cited from earlier work
# [13] = test system: miRNA-155; test: qRT-PCR of miRNA-155 level in WM cell lines; type: cell-based, human; conditions: BCWM.1; MWCL.1; 0.1-1-10 nM, 12 hours
# Protocol: qRT-PCR for miRNA-155 (TaqMan microRNA Assays, Applied Biosystems, Foster City, Calif.) was performed on an Applied Biosystems AB7500 Real Time PCR system.
# [14] = test system: BCWM.1 cells; test: Thymidine uptake cell proliferation assay; type: cell-based, human; conditions: 0.01-40 nM, 48 hours
# [15] = test system: BCWM.1 cells; conditions: everolimus 0.5 nM alone, 48 hours
# [16] = test system: BCWM.1 cells; test: [3H]-TdR uptake of BCWM.1 cells adherent to BMSCs; type: cell-based, human; conditions: 0.1-10 nM, 48 hours
# Protocol: as §1
# [17] = test system: BCWM.1 cells; test: Transwell migration assay towards SDF-1; type: cell-based, human; conditions: 0.01-1 nM, 4 hours, 30 nM SDF-1
# Protocol: Transwell migration assay (Costar; Corning, Acton, Mass.) was performed using BCWM.1 cells in the presence or absence of 30 nM SDF-1, as described (Azab A. K., et al., Blood, 114(3):619-29 (2009)).
# as §1
# [18] = test system: BCWM.1 cells; test: MTT cytotoxicity assay; type: cell-based, human
# [19] = test system: mammalian target of rapamycin (mTOR); test: Immunohistochemistry of p-4EBP1 and p-S6R in bone marrow biopsies pre- and post-everolimus; type: in vivo, human
# Source text: Bone marrow biopsies from WM patients at pretreatment and at the end of therapy were fixed in Zenker's formalin, embedded in paraffin blocks, and sectioned. Sections were stained for phospho(p)-4EBP1 and p-S6R (Cell Signaling Technology, Inc.). Signal quantification for each target was obtained from four different areas, on matched pre- and post-everolimus treatment of 4 patients presenting with partial response; and on matched pre- and post-everolimus treatment of 3 patients presenting with stable disease. Numbers of positive cells were obtained on 4 different fields of the bone marrow biopsy, and average and standard deviation provided, as previously described (Fingar D. C. et al., Mol. Cell. Biol., 24(1):200-16 (2004).
# In contrast, everolimus-dependent modulation of phosphorylated ribosomal protein S6 (phospho(p)-S6R) and p-4EBP1 was not observed in those patients with stable disease (FIG. 9C).
# [20] = test system: primary peripheral blood-derived CD19+ cells; test: MTT cytotoxicity on healthy donor cells; type: cell-based, human; conditions: healthy individuals, 60-1000 nM, 48 hours
# [21] = test system: primary WM bone-marrow derived CD19+ cells; test: MTT cytotoxicity on primary WM cells; type: cell-based, human; conditions: 0.1-10 nM, 48 hours, 4 patients with relapsed/refractory WM
# Protocol: Next, it was sought to determine the underlying mechanisms that led to everolimus-dependent anti-tumor effect in WM. The activity of everolimus in targeting WM cells was tested in primary WM CD19^+ cells, and WM and IgM secreting lymphoma cell lines (BCWM1; MWCL.1; RL), as well as in normal PBMC-derived CD19^+ cells. […] Everolimus-induced toxicity in WM and IgM secreting lymphoma cell lines was subsequently validated.
# [22] = test system: BCWM.1 and MWCL.1 cells; test: MTT cytotoxicity in miRNA-155 knockdown probe-transfected WM cell lines; type: cell-based, human; conditions: 0.1-1-10 nM, 48 hours, knockdown probe vs scramble probe
# [23] = test system: NF-κB p65; test: NF-κB p65 DNA-binding activity (Active Motif TransAM) in nuclear extracts; type: cell-based, human; conditions: BCWM.1 and MWCL.1; everolimus 1 nM or bortezomib 5 nM, 4 hours; TNF-α 10 ng/mL
# Source text: NF-κB activity was investigated using the Active Motif TransAM kits, a DNA-binding enzyme-linked immunosorbent assay (ELISA)-based assay (Active Motif North America, Carlsbad, Calif.).
# [24] = test system: BCWM.1 cells; test: Antibody-dependent cell-mediated cytotoxicity assay (ADCC); type: cell-based, human; conditions: E/T ratio of 10:1; rituximab 10 μg/mL, everolimus 1 nM, bortezomib 5 nM
# Protocol: Briefly, interleukin-2 (IL-2; R&D, Minneapolis, Minn.)-activated PBMCs were used as effector cells and calcein-AM-labeled BCWM.1 cell line, as targets. PBMCs were separated from leukopheresis products from healthy donors over Ficoll-Hypaque solution after informed consent. Effector cells were used immediately at 37° C. in RPMI complete media after being activated with IL-2 (100 UI/mL for 36 hours). Target cells were labeled with calcein-AM for 1 hour at 37° C., washed thrice, and plated in triplicate in 96-well plates (5000 cells per well). ADCC was performed in the presence of rituximab (10 μg/mL) or human control IgG1 (2 ng/mL) at various effector-target (E/T) ratios (10:1, 20:1, and 40:1). The 96-well plates were centrifuged at 30 g for 2 minutes at room temperature, followed by a 4-hour incubation at 37° C. Culture supernatants were transferred to a Black ViewPlate-96 plate and read on Wallac VICTOR2 using 492/520 nm filter set (Perkin Elmer). Combinatory studies using everolimus (1 nM), Bortezomib (5 nM) and Rituximab (10 μg/mL) were also performed. This assay was valid only if (mean maximum release−medium control release)/(mean spontaneous release−medium control release) was more than 7. Spontaneous release is the CPM in the supernatant from wells containing target cells alone. Maximum release is the supernatants of wells containing target cells and Triton X-100. […]
compound,measurement,setting,value
"CO[C@H]1C[C@@H]2CC[C@@H](C)[C@@](O)(O2)C(=O)C(=O)N2CCCC[C@H]2C(=O)O[C@H]([C@H](C)C[C@@H]2CC[C@@H](OCCO)[C@H](OC)C2)CC(=O)[C@H](C)/C=C(\C)[C@@H](O)[C@@H](OC)C(=O)[C@H](C)C[C@H](C)/C=C/C=C/C=C/1C [everolimus, 40-O-(2-hydroxyethyl) derivative of sirolimus (rapamycin)]",cells in S phase,[1]; 0.1 nM everolimus,29.14%
same,G1 phase BCWM.1 cells,[1]; 0.1 nM everolimus,61.25%
same,cells in S phase,[1]; 1 nM everolimus,21.71%
same,G1 phase BCWM.1 cells,[1]; 1 nM everolimus,70.98%
same,cell cycle progression,"[1]; 0.1-10 nM, 12 hours",cell cycle arrest
same,cell adhesion to primary WM bone marrow stromal cells,[2],inhibited WM cell adhesion in a dose-dependent manner
same,endothelial cell-dependent phosphorylation of 4EBP1 and 70SK in WM cells,[3],inhibited endothelial cell-dependent phosphorylation of 4EBP1 and 70SK
same,apoptosis (DNA fragmentation),[4],induced apoptosis in a dose-dependent manner
same,cytotoxicity,[5],induction of cytotoxicity was validated
same,capillary formation,[6]; 1 nM everolimus,almost complete inhibition of capillary formation
same,endothelial cell morphogenesis on Matrigel,[6]; 0.01-10 nM,inhibited endothelial cell morphogenesis on Matrigel in a dose-dependent manner
same,WM cell proliferation in presence of endothelial cells,[7],"reduced WM cell proliferation, despite the presence of endothelial cells"
same,"caspase-9, -3 and PARP cleavage",[8],"induced caspase-9, -3 and PARP cleavage in a dose dependent manner"
same,viability of BMSCs,[9],not affected
same,cyclin D1 and cyclin D2,[10],down-regulation
same,"cyclin kinase inhibitor proteins p27Kip1, p21Cip1",[10],up-regulation
same,"p-mTOR, p-p70S6K and p-4EBP1",[11],inhibition
same,minor response,[12],28%
same,overall response rate,[12],70%
same,partial response (PR),[12],42%
same,miRNA155 level,[13],inhibited miRNA155 level in a dose-dependent manner
same,cell proliferation,[14],inhibiting cell proliferation
same,"cytotoxicity, % of BCWM.1 cells",[15],24%
same,BMSC-triggered proliferation of BCWM.1 cells,[16],inhibited by everolimus in a dose-dependent manner
same,migration towards SDF-1,[17],"inhibited WM cell migration towards SDF-1, in a dose-dependent manner"
same,migration towards SDF-1,[17]; listed as Everolimus,inhibited SDF-1-induced migration
same,cytotoxicity at doses used for migration,"[18]; 0.01-1 nM, 4 hours",did not induce cytotoxicity
same,cytotoxicity,"[18]; 0.01-40 nM, 48 hours",inducing cytotoxicity in a dose-dependent manner
same,phosphorylation of S6R and 4EBP1 in bone marrow biopsies,"[19]; patients with partial response, pre- vs post-everolimus",inhibition of phosphorylation
same,modulation of p-S6R and p-4EBP1 in bone marrow biopsies,[19]; patients with stable disease,not observed
same,cytotoxicity,[20],did not show cytotoxicity
same,cytotoxic effect,[21],significantly induced toxicity in all the 4 samples
same,everolimus-dependent induction of toxicity after miRNA155 knock down,[22],partially inhibited by knocking down miRNA155
same,"TNF-α-induced NF-κB recruitment to the nucleus, single agents",[23],similarly inhibited
"rituximab: the anti-CD20 antibody, rituximab",specific lysis,[24],37.7%
